Measured values published in article PMC6847237 (2019).

Experiments:
[1] = test system: (UCAACAGUUGA)2 (RNA, mismatch bulge abasic) UCAACAGUUGA; test: UV melting at 260 nm, median method; conditions: 100 mM NaCl; 10 mM sodium cacodylate pH 7.0, 2% DMSO; RNA 5 μM, CMBL3a 20 μM
[2] = test system: (CGG)9 (5'-biotinylated, immobilized) (RNA, repeat) CGGCGGCGGCGGCGGCGGCGGCGGCGG; test: SPR single cycle kinetics; conditions: 150 mM NaCl; 10 mM HEPES pH 7.4, 3 mM EDTA, 0.005% P20, 5% DMSO; highest tested 0.5 μM
[3] = test system: GCAG(2′-SeCH3-C)AGC (RNA, mismatch bulge abasic, 2'-methylseleno cytidine at 5) GCAGCAGC; test: X-ray crystallography (SAD); conditions: 5 mM MgCl2; TRIS pH 7.5, 30% PEG 400; RNA 0.75 mM, RNA:ligand 1:2 mixed
[4] = test system: (CAG)9 (RNA, repeat) CAGCAGCAGCAGCAGCAGCAGCAGCAG; test: CD titration at 347.5 nm; conditions: 100 mM NaCl, 10 mM sodium cacodylate pH 7.0, ambient temperature, RNA 2.5 μM, 1:2 binding isotherm
[5] = test system: (GCAGCAGC)2 (RNA, mismatch bulge abasic) GCAGCAGC; test: X-ray crystallography; conditions: RNA 0.75 mM, RNA:ligand 1:2 mixed
[6] = test system: (CAG)9 (5'-biotinylated, immobilized) (RNA, repeat) CAGCAGCAGCAGCAGCAGCAGCAGCAG; test: SPR single cycle kinetics; conditions: 150 mM NaCl; 10 mM HEPES pH 7.4, 3 mM EDTA, 0.005% P20, 5% DMSO; 0.1-0.5 μM ligand
[7] = test system: (CCG)9 (5'-biotinylated, immobilized) (RNA, repeat) CCGCCGCCGCCGCCGCCGCCGCCGCCG; test: SPR single cycle kinetics; conditions: 150 mM NaCl; 10 mM HEPES pH 7.4, 3 mM EDTA, 0.005% P20, 5% DMSO; highest tested 0.5 μM

O=C1Nc2ccc3ccc(nc3n2)CNCc2ccc3ccc(nc3n2)NC(=O)OCC/C=C/CCO1
binding [1]: yes
binding [2]: no
binding [3]: yes
apparent Kd [4]: 70.5 µM
binding ([5]; 10 mM MgCl2, 1 M Li2SO4, cacodylate pH 6.0): yes
binding [6]: yes
binding [7]: no

O=C1Nc2ccc3ccc(nc3n2)CNCc2ccc3ccc(nc3n2)NC(=O)OCC/C=C\CCO1
binding ([5]; 20 mM magnesium acetate, 1.7 M ammonium sulfate, cacodylate pH 6.0): yes

O=C1Nc2ccc3ccc(nc3n2)CNCc2ccc3ccc(nc3n2)NC(=O)OCCCNCCCO1
binding ([5]; 2 mM MgCl2, 5 mM hexamine cobalt chloride, MOPS pH 7.0, Tacsimate): yes
